Measurements taken from US20230162361A1, “ASSESSMENT OF SKIN TOXICITY IN AN IN VITRO TISSUE SAMPLES USING DEEP LEARNING” (Genentech, Inc., priority 2020, published 2023).
Like-named read-outs stand apart in the source and are kept apart here.

Experiments:
[1] = test system: reconstructed human epidermis (RHE) samples; assay: 3D in vitro reconstructed human epidermis (RHE) model, viable epidermal thickness measured with the machine-learning model after 4-day treatment
Text: A decrease in epidermal thickness of the skin may be a toxicity indication for skin toxicities as well as for cutaneous disease. For example, one can calculate a percentage by dividing the epidermal thickness of the skin after the treatment by a drug compound by the epidermal thickness before the treatment. If the percentage is smaller than 10%, it may indicate very severe toxicity; if the percentage is between 10% and 50%, it may indicate severe toxicity; if the percentage is between 50% and […], it may indicate mild toxicity; and if the percentage is larger than 90%, it may indicate rare or no toxicity. There are few preclinical methods for evaluating in vivo skin toxicity prior to clinical trial. The last two decades have seen the advent of in vitro human skin models, which have a proven record of accurately predicting clinical skin toxicity. FIG. 3A illustrates an example reconstructed human epidermis (RHE) model 300. These reconstituted human epidermal (RHE) models 300 may be metabolically and mitotically active 3D models of the normal human epidermis derived from cultured human epidermal keratinocytes. The RHE models 300 may have in vivo-like morphology and growth characteristics. […] The RHE models 300 may have keratinocytes only but no dermis, vasculature or immune/inflammatory cells.
FIG. 5A illustrates an example annotation of an RHE sample 310 with tissue sections. […] After the epidermal area is identified, the thickness of the viable epidermal area may be computed, e.g., based on distance transformation. In particular embodiments, the median thickness value may be used to represent the thickness of the viable epidermal area for each tissue section and the average thickness of the two tissue sections of a RHE sample 310 may be used to represent a single RHE sample 310. FIG. 5B illustrates an example extraction of thickness of a tissue sample. […] The digital pathology image processing system 110 may then quantify, based on the centerline, a thickness value for each of the plurality of locations. […] This way, the thickness of each tissue sample (e.g., RHE sample 310) may be normalized. FIG. 5C illustrates an example normalization of the tissue thickness. […] The left subfigure of FIG. 5C may show the originally measured thickness whereas the right subfigure of FIG. 5C may show the normalized thickness. Although this disclosure describes calculating normalized thickness in a particular manner, this disclosure contemplates calculating normalized thickness in any suitable manner. As an example and not by way of limitation, the digital pathology image processing system may determine a plurality of stepwise thickness measurements along an axis determined based on the epidermal layer, calculate a length and area of the epidermal layer with the thickness being derived from them, and then calculate the normalized thickness accordingly.
The embodiments disclosed herein further conduct a retrospective study based on RHE samples 310 from five studies that evaluated the skin toxicity of various compounds. The 3D in vitro human skin model was used for all studies. A total of 31 compounds with known or suspected clinical skin toxicity were evaluated for skin toxicity, some of which were evaluated in more than one study. Upon receipt of the RHE samples 310, each tissue culture insert was transferred to a well of 6-well plate containing 1 mL/well of pre-warmed maintenance media and kept dry on top to maintain an air-liquid interface. The RHE samples 310 were equilibrated at 37° C., 5% CO2 overnight, and fed with fresh media the next day. One day later, the RHE samples 310 were subjected to 4-day daily basolateral treatment with test articles at various concentrations, or vehicle control DMSO at 0.5%.

[2] = cited from earlier work
skin = settings: cited from earlier work; for Skin tox.: clinical skin toxicity (rash, pruritus, acne, dermatitis, alopecia, dry skin) in labels or publications; for clinical toxicity: clinical skin toxicity
[3] = clinical exposure, maximal free concentrations measured in plasma
[4] = mean, normalized to control, test concentration 2 uM
[5] = mean, normalized to control, test concentration 10 uM
[6] = marked *: plasma protein binding unavailable, total concentration used

## CN(C)C/C=C/C(=O)Nc1cc2c(Nc3ccc(F)c(Cl)c3)ncnc2cc1O[C@H]1CCOC1 [Afatinib]
[1]
  change in epidermal thickness versus control (FIG. 11A): significant decrease in epidermal thickness
[1]; human, 4 days, 1 uM
  Normalized thickness: 0.70
[1]; human, 4 days, 10 uM
  Normalized thickness: 0.77
[2]; [3]
  Cmax_free: 0.0042 µM
skin
  Skin tox.: Yes
  clinical toxicity: demonstrated clinical toxicity

## Cc1nc(NC(=O)N2CCC[C@H]2C(N)=O)sc1-c1ccnc(C(C)(C)C(F)(F)F)c1 [Alpelisib]
[1]
  change in epidermal thickness versus control (FIG. 11A): significant decrease in epidermal thickness
[1]; human, 4 days, 0.32 uM
  Normalized thickness: 0.75
[1]; human, 4 days, 3.2 uM
  Normalized thickness: 0.45
[2]; [3]
  Cmax_free: 0.61 µM
skin
  Skin tox.: Yes
  clinical toxicity: demonstrated clinical toxicity

## O=C(c1ccc(F)c(F)c1Nc1ccc(I)cc1F)N1CC(O)([C@@H]2CCCCN2)C1 [Cobimetinib]
[1]
  change in epidermal thickness versus control (FIG. 11A): significant decrease in epidermal thickness
[1]; human, 4 days, 0.02 uM
  Normalized thickness: 0.91
[1]; human, 4 days, 1 uM
  Normalized thickness: 0.71
[2]; [3]
  Cmax_free: 0.03 µM
skin
  Skin tox.: Yes
  clinical toxicity: demonstrated clinical toxicity

## C#Cc1cccc(Nc2ncnc3cc(OCCOC)c(OCCOC)cc23)c1 [Erlotinib]
[1]
  change in epidermal thickness versus control (FIG. 11A): significant decrease in epidermal thickness
[1]; human, 4 days, 1 uM
  Normalized thickness: 0.53
[1]; human, 4 days, 2 uM
  Normalized thickness: 0.75
[1]; human, 4 days, 10 uM
  Normalized thickness: 0.41
[2]; [3]
  Cmax_free: 0.38 µM
skin
  Skin tox.: Yes
  clinical toxicity: demonstrated clinical toxicity

## CC[C@H](Nc1ncnc2[nH]cnc12)c1nc2cccc(F)c2c(=O)n1-c1ccccc1 [Idelalisib]
[1]; human, 4 days, 0.08 uM
  Normalized thickness: 0.95
[1]; human, 4 days, 0.8 uM
  Normalized thickness: 1.00
[2]; [3]
  Cmax_free: 0.84 µM
skin
  Skin tox.: Yes

## Cn1cc(-c2ccc3nnc(C(F)(F)c4ccc5ncccc5c4)n3n2)cn1 [Jnj-38877605]
[1]; [4]
  Normalized thickness: 0.82
[1]; [5]
  Normalized thickness: 0.91
[2]; [6]
  Cmax_free: 0.13* uM
skin
  Skin tox.: No

## CS(=O)(=O)CCNCc1ccc(-c2ccc3ncnc(Nc4ccc(OCc5cccc(F)c5)c(Cl)c4)c3c2)o1 [Lapatinib]
[1]
  change in epidermal thickness versus control (FIG. 11A): significant decrease in epidermal thickness
[1]; human, 4 days, 1 uM
  Normalized thickness: 0.66
[1]; human, 4 days, 10 uM
  Normalized thickness: 0.47
[2]; [3]
  Cmax_free: 0.000039 µM
skin
  Skin tox.: Yes
  clinical toxicity: demonstrated clinical toxicity

## C=CC(=O)Nc1cc(Nc2nccc(-c3cn(C)c4ccccc34)n2)c(OC)cc1N(C)CCN(C)C [Osimertinib]
[1]
  change in epidermal thickness versus control (FIG. 11A): significant decrease in epidermal thickness
[1]; human, 4 days, 0.3 uM
  Normalized thickness: 0.85
[1]; human, 4 days, 300 nM
  median normalized thickness: 0.80
[1]; human, 4 days, 1 uM
  Normalized thickness: 0.61
[1]; human, 4 days, 3 uM
  Normalized thickness: 0.45
[1]; human, 4 days, 10 uM
  Normalized thickness: 0.76
[2]; [3]
  Cmax_free: 0.025 µM
skin
  Skin tox.: Yes
  clinical toxicity: demonstrated clinical toxicity

## CC(=O)c1c(C)c2cnc(Nc3ccc(N4CCNCC4)cn3)nc2n(C2CCCC2)c1=O [Palbociclib]
[1]; human, 4 days, 0.023 uM
  Normalized thickness: 1.02
[1]; human, 4 days, 0.23 uM
  Normalized thickness: 0.99
skin
  Skin tox.: Yes

## OCCn1cc(-c2cnc3nnn(Cc4ccc5ncccc5c4)c3n2)cn1 [Pf-04217903]
[1]; 10 µM
  normalized epidermal thickness decrease: greater than 20%
[1]; [4]
  Normalized thickness: 0.91
[1]; [5]
  Normalized thickness: 0.72
[1]; normalized viable epidermal thickness, multiple comparison, result in words
  change in epidermal thickness versus control (FIG. 11A): significant decrease in epidermal thickness
[2]; [3]
  Cmax_free: 0.015 µM
skin
  Skin tox.: No
  clinical toxicity: did not exhibit clinical toxicity

## CS(=O)(=O)N1CCN(Cc2cc3nc(-c4cccc5[nH]ncc45)nc(N4CCOCC4)c3s2)CC1 [Pictilisib]
[1]
  change in epidermal thickness versus control (FIG. 11A): significant decrease in epidermal thickness
[1]; human, 4 days, 0.02 uM
  Normalized thickness: 0.94
[1]; human, 4 days, 1 uM
  Normalized thickness: 0.46

## C=CC(=O)N1CCC(Oc2cc3c(Nc4ccc(Cl)c(Cl)c4F)ncnc3cc2OC)CC1 [Poziotinib]
[1]
  change in epidermal thickness versus control (FIG. 11A): significant decrease in epidermal thickness
[1]; human, 4 days, 0.3 uM
  Normalized thickness: 0.72
[1]; human, 4 days, 1 uM
  Normalized thickness: 0.65
[1]; human, 4 days, 10 uM
  Normalized thickness: 0.73
[2]; [3]
  Cmax_free: 0.0021 µM
skin
  Skin tox.: Yes
  clinical toxicity: demonstrated clinical toxicity

## N#CC[C@H](C1CCCC1)n1cc(-c2ncnc3[nH]ccc23)cn1 [Ruxolitinib]
[1]
  change in epidermal thickness versus control (FIG. 11A): significant decrease in epidermal thickness
[1]; human, 4 days, 2 uM
  Normalized thickness: 0.85
[1]; human, 4 days, 10 uM
  Normalized thickness: 0.81
[2]; [3]
  Cmax_free: 0.033 µM
skin
  Skin tox.: No
  clinical toxicity: did not exhibit clinical toxicity

## CNC(=O)c1cc(Oc2ccc(NC(=O)Nc3ccc(Cl)c(C(F)(F)F)c3)cc2)ccn1 [Sorafenib]
[1]
  change in epidermal thickness versus control (FIG. 11A): failed to cause any meaningful change in epidermal thickness
[1]; human, 4 days, 0.5 uM
  Normalized thickness: 0.87
[1]; human, 4 days, 5 uM
  Normalized thickness: 0.85
[2]; [3]
  Cmax_free: 0.07 µM
skin
  Skin tox.: Yes

## C[C@@H]1CCN(C(=O)CC#N)C[C@@H]1N(C)c1ncnc2[nH]ccc12 [Tofacitinib]
[1]
  change in epidermal thickness versus control (FIG. 11A): significant decrease in epidermal thickness
[1]; human, 4 days, 2 uM
  Normalized thickness: 0.84
[1]; human, 4 days, 10 uM
  Normalized thickness: 0.82
skin
  Skin tox.: No
  clinical toxicity: did not exhibit clinical toxicity

## COC(=O)Nc1nc2cc(C3(O)c4ccccc4C(=O)N3c3cc(Cl)ccc3C)ccc2[nH]1 (centres unmarked) [XL281]
[1]
  change in epidermal thickness versus control (FIG. 11A): increase in epidermal thickness
[1]; human, 4 days, 0.5 uM
  Normalized thickness: 1.14
[1]; human, 4 days, 5 uM
  Normalized thickness: 0.89
[2]; [6]
  Cmax_free: 4.5* uM
skin
  Skin tox.: No
